Experiments:
collagen peptide [1] = assay: Coprecipitation of black tea components with collagen peptide, reverse-phase chromatography; type: binding, pig; details: black tea A 200 ml + collagen peptide 5 g, FIG. 7B
Description: (§1) Collagen peptide (dry powder of the pig skin-derived collagen hydrolysate, the average molecular weight: 3000-5000, manufactured by Nippi, Inc.) was dissolved in water so that the specified concentration is achieved.
To black tea A (200 ml), collagen peptide (5 g) was added and mixed; the supernatant and precipitate were separated by centrifuging (10,000×g, for 10 minutes) (Example 6). To determine the components, of the black tea A before the addition of the collagen peptide (FIG. 7A), the supernatant after centrifuging (FIG. 7B), and the precipitate solubilized with SDS (FIG. 7C), were analyzed by reverse-phase chromatography (column: Cosmosil 5C18-AR-II (manufactured by Nacalai Tesque, Inc.), mobile phase: 0.1% formic acid-containing acetonitrile, detection: 215 nm, 280 nm), respectively.

collagen peptide [2] = assay: Complex formability of theaflavins and epicatechin with collagen peptide (total Hyp in supernatant / complex); type: binding, pig; details: catechin 0.2 μmol in 1 ml
Description: as §1
A supernatant was obtained by adding the triple volume (v/v) of ethanol to the aqueous solution and centrifuging (10,000×g, 15 min). The supernatant was hydrolyzed with hydrochloric acid (under reduced pressure, 150° C., and 1 hour). After the PITC treatment, the amount of PTC-Hyp (=the total amount of Hyp in the solution) was determined by carrying out reverse-phase chromatography (column: LiChroCART 250-4 (manufactured by Merck)). The amount of PTC-Hyp (=the amount of free Hyp) was determined by carrying out the PITC treatment/reverse-phase chromatography for the supernatant without hydrochloric acid hydrolysis.
The respective aqueous solutions of theaflavins and epicatechin (1 mg/ml) and collagen peptide aqueous solution (200 mg/ml) were prepared, and they were raised at room temperature so that the below-described contents are attained. In the test examples of the present patent application, the following reagents were used.
After mixing, the supernatant and precipitate were separated by centrifuging (8,000×g, […]). According to Method 4, the total amount of Hyp was determined for the supernatant (=“the total amount of Hyp in the supernatant”). “The total amount of Hyp in the complex” was calculated by subtracting “the total amount of Hyp in the supernatant” from the amount of collagen peptide used in the above reaction (2 mg or 10 mg).

Compound | fate of black tea component in the supernatant after mixing with collagen peptide and centrifuging (collagen peptide [1]) | Total Hyp in the complex (%) (collagen peptide [2]; Collagen peptide 2 mg) | Total Hyp in the supernatant (%) (collagen peptide [2]; Collagen peptide 2 mg) | Total Hyp in the complex (%) (collagen peptide [2]; Collagen peptide 10 mg) | Total Hyp in the supernatant (%) (collagen peptide [2]; Collagen peptide 10 mg)
O=c1c(O)cc([C@H]2Oc3cc(O)cc(O)c3C[C@H]2O)cc2c([C@H]3Oc4cc(O)cc(O)c4C[C@H]3O)cc(O)c(O)c12 [Example 8, theaflavin] | disappeared from the supernatant | 86.5 | 13.5 | 83.8 | 16.2
O=C(O[C@@H]1Cc2c(O)cc(O)cc2O[C@@H]1c1cc(=O)c(O)c2c(O)c(O)cc([C@H]3Oc4cc(O)cc(O)c4C[C@H]3O)c2c1)c1cc(O)c(O)c(O)c1 [Example 9, theaflavin-3-gallate] | disappeared from the supernatant | 87.0 | 13.0 | 86.6 | 13.4
Cn1c(=O)c2c(ncn2C)n(C)c1=O [caffeine] | remained mostly in the supernatant |  |  |  | 
O=C(O[C@@H]1Cc2c(O)cc(O)cc2O[C@@H]1c1ccc(O)c(O)c1)c1cc(O)c(O)c(O)c1 [epicatechin gallate] | remained mostly in the supernatant |  |  |  | 
O=C(O[C@@H]1Cc2c(O)cc(O)cc2O[C@@H]1c1cc(O)c(O)c(O)c1)c1cc(O)c(O)c(O)c1 [epigallocatechin gallate] | remained mostly in the supernatant |  |  |  | 
theaflavin-3,3′-digallate [Example 11] | disappeared from the supernatant | 98.0 | 2.0 | 97.8 | 2.2
theaflavin-3′-gallate [Example 10] | disappeared from the supernatant | 97.7 | 2.3 | 90.5 | 9.5
